Like-named read-outs stand apart in the source and are kept apart here. Ends that are not written are not given here.

For experiment [1], the system named is platelets. Format: cell-based, human. Conditions: washed platelets, α-thrombin 1 nM. As to the method: Fresh whole blood was collected and mixed with 0.013 M sodium citrate and platelet-rich plasma was prepared according to the method of Meloni et al., J. Biol. Chem. 266, 6786, 1991. Washed platelets were prepared by gel filtration over Sepharose 2B columns in Hepes-Tyrode's buffer (0.137 M NaCl, 3 mM KCl, 0.4 mM Na H2 PO4, 12 mM NaHCO3, 1 mM MgCl2, 14.7 mM Hepes containing 20 mM glucose and 0.2% bovine serum albumin, pH 7.35). Platelets for aggregation and secretion studies were incubated according to the method of Schmaier et al., Blood 56, 1013, 1980 with 5-[^14 C]hydroxytryptamine for 30 min at 37° C. The washed platelets (2×10^8 /ml, final concentration radiolabeled with 5-[^14 C]hydroxytryptamine) were added to a cuvette of an aggregometer (Chronolog Corp., Havertown, Pa.), standardized using the protocol of Meloni et al., supra. After the addition of ZnCl2, final concentration 50 μM, purified HK (1 μM) or various concentrations of the peptides (0.1 to 3 mM) or buffer alone was added to the cuvette. Once the baseline stabilized, α-thrombin [0.125 U/ml (1 nM) final concentration] was then added to initiate platelet activation. Stirred platelets were allowed to incubate with o-thrombin and additions for 1 min. In other experiments, platelets were stimulated with TRAP (0.625 to 2.5 μM), ADP (1-5 μM)(Sigma), collagen (1.25 μg/ml) (Horm, Munich, Germany), or U-46619 (1 μM)(Calbiochem Behring, San Diego, Calif.). Additional experiments were performed with washed platelets stimulated with γ-thrombin (1 nM) in the presence of human fibrinogen (100 mg/dl). Both γ-thrombin and human fibrinogen were purchased from Enzyme Research Laboratories, South Bend, Ind. At the conclusion of the incubation, the entire platelet sample was centrifuged at 10,900 xg (Model E, Beckman Instruments, Palo Alto, Calif.) over a 0.135 mM formaldehyde, 5 mM EDTA solution (1 part of formaldehyde-EDTA to 4 parts of platelet suspension) and stored on ice until an aliquot of the supernatant was assayed for 5-[^14 C]hydroxytryptamine secretion. Percent secretion was determined by the ratio of the loss of 5-[^14 C]hydroxytryptamine in the supernatant of the agonist-treated specimen to the loss of 5-[^14 C]hydroxytryptamine in the supernatant of the platelet lysate after the value of the control supernatant (i.e., the level of 5-[^14 C]hydroxytryptamine in a unstimulated sample) was subtracted from both.

Experiment [2] concerns human platelets. Type of experiment: cell-based. As to the method:
The cytoplasmic free Ca^2+ concentration ([Ca^2+ ]i) was measured using the fluorescent Ca^2 + indicator fura-2 (Molecular Probes, Inc., Eugene, Oreg.). Gel filtered platelets in Hepes-Tyrode's buffer were loaded with fura-2 by incubation at 37° C. with 1 μM fura-2/acetoxymethyl ester for 45 min according to the method of Rasmussen et al., J. Biol. Chem. 268, 14322 (1993). The labeled platelets were then re-gel filtered to remove any excess probe. Aliquots of the labeled platelet suspension were transferred into a quartz cuvette with a magnetic stirrer, which was then placed in a thermostatically controlled chamber at 37° C. in a fluorescence spectrophotometer (Dual Wave Length Shimazdu SP5000 Spectrofluorometer, Shimazdu USA, Pittsburgh, Pa.). Reagents were directly added to the cuvette. The excitation wave lengths varied between 340 and 380 nm. The fluorescence was measured by recording emitted light at 510 nm as reported by Fisher et al, Mol. Pharm. 35, 195 (1989). The minimum emission was determined on a 20 mM digitonin, 10 mM EGTA solubilized platelet sample; maximum emission was determined on the same sample with 10 mM Ca^2+ added. The intraplatelet free Ca^2+ concentration was calculated by the method of Grykiewicz et al., J. Biol. Chem. 260, 3440 (1985). The ratio of the fluorescence readings was calculated as R=340/380 nm and processed according to the equation [Ca^2+ ]i =KD ((R-Rmin)/Rmax -R))(Sf2 /Sb2) to determine the intraplatelet free Ca^2+ concentration. The KD for fura-2 was assumed to be 224 nM. Rmax and Rmin are the maximum and minimum fluorescence ratios measured at the end of the experiment, respectively; Sf2 and Sb2 are the fluorescence values at 380 nm in the absence and presence of saturating [Ca^2+ ], respectively.

As for RPPGFSPFR [BK, bradykinin], the IC50 was determined as 250 µM in experiment [1] (read-out: IC50 AGGREGATION (inhibition of α-thrombin-induced platelet aggregation)); 1000 µM in experiment [1] (read-out: IC50 SECRETION (inhibition of α-thrombin-induced platelet secretion)); 230 µM in experiment [2] (gel filtered platelets, read-out: IC50, α-thrombin-induced Ca2+ mobilization). Further, the “inhibition of α-thrombin-induced calcium mobilization” value in experiment [2] (FIG. 2, concentration not given) was “block”.

As a reminder, the IC50 is the midpoint of a concentration-inhibition curve.

These data come from patent US6143719A, “Bradykinin analogs as selective thrombin inhibitors” (The Regents of the University of Michigan, priority 1996, dated 2000).
